These results are taken from US20160272617A1, “SUBSTITUTED PHENYLALANINE DERIVATIVES” (BAYER PHARMA AKTIENGESELLSCHAFT, priority 2013, published 2016).

What is called IC50 is the concentration needed to halve the response being measured. Higher therefore signals lower potency.

Molecules are shown by their SMILES. Counter-ions that a name gives are not always drawn.

One assay deals with human and animal plasma. Description: Determination of anticoagulatory activity: activated partial thromboplastin time (aPTT) in plasma. The settings on record: concentration of test substance which brings about a 1.5-fold extension of the aPTT; plasma species not given. The method, then: The anticoagulatory activity of the test substances is determined in vitro in human and animal plasma (for example mouse, rat, rabbit, pig and dog plasma). To this end, blood is drawn off in a mixing ratio of sodium citrate/blood of 1:9 using a 0.11 molar sodium citrate solution as receiver. Immediately after the blood has been drawn off, it is mixed thoroughly and centrifuged at about 4000 g for 15 minutes. The supernatant is pipetted off.
The activated partial thromboolastin time (aPTT) is determined in the presence of varying concentrations of test substance or the corresponding solvent using a commercial test kit (C. K. Prest from Diagnostica Stago). The test compounds are incubated with the plasma and the PTT reagent (cephalin, kaolin) at 37° C. for 3 minutes. Coagulation is then started by addition of a 25 mM aqueous calcium chloride solution, and the time when coagulation occurs is determined. The concentration of test substance which brings about a 1.5-fold extension of the aPTT is determined.

A further assay deals with T1, human factor XIa (Homo sapiens, UniProt P03951).
T1 construct: purchased Kordia
Description: Measurement of FXIa inhibition (fluorogenic peptide substrate Boc-Glu(OBzl)-Ala-Arg-AMC). It counts as biochemical. The settings on record: factor XIa from Kordia, 15 min preincubation, 30 min at 22° C., fluorescence. Put shortly:
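Released AMC fluorescence (360/460 nm) read after 30 min at 22 °C. The reaction was started with Boc-Glu(OBzl)-Ala-Arg-AMC (10 μM stock) after a 15 min preincubation of the enzyme (0.45 nM stock) with compound (final 50 μM to 0.00013 μM).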

T1 sequence (P03951 388-625 limits assumed): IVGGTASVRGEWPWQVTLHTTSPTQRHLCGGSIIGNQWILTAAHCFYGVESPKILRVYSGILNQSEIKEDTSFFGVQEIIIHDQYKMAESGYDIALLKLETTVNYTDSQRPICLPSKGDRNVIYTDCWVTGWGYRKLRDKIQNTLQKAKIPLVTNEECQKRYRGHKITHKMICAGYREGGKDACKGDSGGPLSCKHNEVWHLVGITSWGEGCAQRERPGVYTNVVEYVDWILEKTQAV
T1 sequence (P03951 19-387 partner limits assumed): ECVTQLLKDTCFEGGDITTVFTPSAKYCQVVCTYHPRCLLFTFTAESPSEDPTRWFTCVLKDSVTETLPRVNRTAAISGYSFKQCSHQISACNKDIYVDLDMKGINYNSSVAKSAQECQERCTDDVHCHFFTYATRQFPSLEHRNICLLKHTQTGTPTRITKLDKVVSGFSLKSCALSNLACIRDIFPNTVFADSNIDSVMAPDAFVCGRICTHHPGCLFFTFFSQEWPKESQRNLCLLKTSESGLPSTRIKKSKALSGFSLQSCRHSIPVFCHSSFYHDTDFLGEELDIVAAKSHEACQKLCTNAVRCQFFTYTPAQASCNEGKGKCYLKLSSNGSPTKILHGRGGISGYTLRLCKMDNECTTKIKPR

For `CCN(CC)CCCNC(=O)c1ccc(-c2ccc(C[C@H](NC(=O)[C@H]3CC[C@H](CN)CC3)C(=O)Nc3ccc(-c4nn[nH]n4)cc3)cc2)c(C)c1` [Example 29, 4′-[(2S)-2-({[trans-4-(Aminomethyl)cyclohexyl]carbonyl}amino)-3-oxo-3-{[4-(2H-tetrazol-5-yl)phenyl]amino}propyl]-N-[3-(diethylamino)propyl]-2-methylbiphenyl-4-carboxamide hydrochloride], the “aPTT” value with human and animal plasma turned out to be 0.14 µmol/L. At human factor XIa, this molecule gave an IC50 of 3 nM.
Turning to `CC1CC(NC(=O)c2ccc(-c3ccc(C[C@H](NC(=O)[C@H]4CC[C@H](CN)CC4)C(=O)Nc4ccc(-c5nn[nH]n5)cc4)cc3)c(Cl)c2)CCN1` (stereo partly drawn) [Example 30, 4′-[(2S)-2-({[trans-4-(Aminomethyl)cyclohexyl]carbonyl}amino)-3-oxo-3-{[4-(2H-tetrazol-5-yl)phenyl]amino}propyl]-2-chloro-N-(2-methylpiperidin-4-yl)biphenyl-4-carboxamide hydrochloride], in the assay on human and animal plasma, the “aPTT” value is 0.12 µmol/L. This molecule also came in with an IC50 on human factor XIa of 3.2 nM.
Taken in the same sequence, the figures for `Cc1cc(C(=O)NC2CCNC(C)C2)ccc1-c1ccc(C[C@H](NC(=O)[C@H]2CC[C@H](CN)CC2)C(=O)Nc2ccc3c(=O)[nH][nH]c3c2)cc1` (stereo partly drawn) [Example 31, 4′-{(2S)-2-({[trans-4-(Aminomethyl)cyclohexyl]carbonyl}amino)-3-oxo-3-[(3-oxo-2,3-dihydro-1H-indazol-6-yl)amino]propyl}-2-methyl-N-(2-methylpiperidin-4-yl)biphenyl-4-carboxamide hydrochloride] were 0.22 µmol/L and 30 nM.
Consider `Cc1cc(C(=O)NC2CCNC(C)C2)ccc1-c1ccc(C[C@H](NC(=O)[C@H]2CC[C@H](CN)CC2)C(=O)Nc2ccc(-c3nn[nH]n3)cc2)cc1` (stereo partly drawn) [Example 32, 4′-[(2S)-2-({[trans-4-(Aminomethyl)cyclohexyl]carbonyl}amino)-3-oxo-3-{[4-(2H-tetrazol-5-yl)phenyl]amino}propyl]-2-methyl-N-(2-methylpiperidin-4-yl)biphenyl-4-carboxamide hydrochloride], for which the “aPTT” value in the assay with human and animal plasma came out at 0.09 µmol/L. On human factor XIa, the half-maximal inhibitory concentration (IC50) is 3.4 nM.
The corresponding values for `Cc1cc(C(=O)N[C@H]2CC[C@H](O)CC2)ccc1-c1ccc(C[C@H](NC(=O)[C@H]2CC[C@H](CN)CC2)C(=O)Nc2ccc(-c3nn[nH]n3)cc2)cc1` [Example 33, 4′-[(2S)-2-({[trans-4-(Aminomethyl)cyclohexyl]carbonyl}amino)-3-oxo-3-{[4-(2H-tetrazol-5-yl)phenyl]amino}propyl]-N-(trans-4-hydroxycyclohexyl)-2-methylbiphenyl-4-carboxamide hydrochloride] are 0.11 µmol/L and 0.78 nM.
As for `Cc1cc(C(=O)N[C@H]2CC[C@H](N)CC2)ccc1-c1ccc(C[C@H](NC(=O)[C@H]2CC[C@H](CN)CC2)C(=O)Nc2ccc(-c3nn[nH]n3)cc2)cc1` [Example 34, N-(trans-4-Aminocyclohexyl)-4′-[(2S)-2-({[trans-4-(aminomethyl)cyclohexyl]carbonyl}amino)-3-oxo-3-{[4-(2H-tetrazol-5-yl)phenyl]amino}propyl]-2-methylbiphenyl-4-carboxamide hydrochloride], the “aPTT” value with human and animal plasma worked out at 0.11 µmol/L. At human factor XIa, this molecule came in with a concentration for half-maximal inhibition (IC50) of 1.4 nM.
`Cc1cc(C(=O)NCCCN(C)C)ccc1-c1ccc(C[C@H](NC(=O)[C@H]2CC[C@H](CN)CC2)C(=O)Nc2ccc(-c3nn[nH]n3)cc2)cc1` [Example 35, 4′-[(2S)-2-({[trans-4-(Aminomethyl)cyclohexyl]carbonyl}amino)-3-oxo-3-{[4-(2H-tetrazol-5-yl)phenyl]amino}propyl]-N-[3-(dimethylamino)propyl]-2-methylbiphenyl-4-carboxamide hydrochloride]: in the assay on human and animal plasma, the “aPTT” value turned out to be 0.11 µmol/L. The IC50 against human factor XIa was 2.3 nM.
Regarding `Cc1cc(C(=O)NC2CCNCC2)ccc1-c1ccc(C[C@H](NC(=O)[C@H]2CC[C@H](CN)CC2)C(=O)Nc2ccc(-c3nn[nH]n3)cc2)cc1` [Example 36, 4′-[(2S)-2-({[trans-4-(Aminomethyl)cyclohexyl]carbonyl}amino)-3-oxo-3-{[4-(2H-tetrazol-5-yl)phenyl]amino}propyl]-2-methyl-N-(piperidin-4-yl)biphenyl-4-carboxamide], the “aPTT” value in the assay with human and animal plasma came out at 0.07 µmol/L. This molecule also returned a 50% inhibitory concentration (IC50) against human factor XIa of 1.7 nM.
The corresponding values for `NC[C@H]1CC[C@H](C(=O)N[C@@H](Cc2ccc(-c3ccc(C(=O)NC4CCNCC4)cc3)cc2)C(=O)Nc2ccc(-c3nn[nH]n3)cc2)CC1` [Example 37, 4′-[(2S)-2-({[trans-4-(Aminomethyl)cyclohexyl]carbonyl}amino)-3-oxo-3-{[4-(2H-tetrazol-5-yl)phenyl]amino}propyl]-N-(piperidin-4-yl)biphenyl-4-carboxamide hydrochloride] are 0.12 µmol/L and 8.5 nM.
The corresponding values for `CCN(CC)CCNC(=O)c1ccc(-c2ccc(C[C@H](NC(=O)[C@H]3CC[C@H](CN)CC3)C(=O)Nc3ccc(-c4nn[nH]n4)cc3)cc2)cc1` [Example 38, 4′-[(2S)-2-({[trans-4-(Aminomethyl)cyclohexyl]carbonyl}amino)-3-oxo-3-{[4-(2H-tetrazol-5-yl)phenyl]amino}propyl]-N-{2-[diethylamino]ethyl}biphenyl-4-carboxamide hydrochloride] are 0.42 µmol/L and 14 nM.
As to `NC[C@H]1CC[C@H](C(=O)N[C@@H](Cc2ccc(-c3ccc(C(=O)N[C@@H]4CCNC4)cc3)cc2)C(=O)Nc2ccc(-c3nn[nH]n3)cc2)CC1` [Example 39, 4′-[(2S)-2-({[trans-4-(Aminomethyl)cyclohexyl]carbonyl}amino)-3-oxo-3-{[4-(2H-tetrazol-5-yl)phenyl]amino}propyl]-N-[(3R)-pyrrolidin-3-yl]biphenyl-4-carboxamide hydrochloride], the “aPTT” value with human and animal plasma worked out at 0.1 µmol/L. The midpoint of inhibition against human factor XIa, the IC50, lay at 9.8 nM.
Turning to `Cc1cc(C(=O)NC2CCN(C(C)C)CC2)ccc1-c1ccc(C[C@H](NC(=O)[C@H]2CC[C@H](CN)CC2)C(=O)Nc2ccc(-c3nn[nH]n3)cc2)cc1` [Example 40, 4′-[(2S)-2-({[trans-4-(Aminomethyl)cyclohexyl]carbonyl}amino)-3-oxo-3-{[4-(2H-tetrazol-5-yl)phenyl]amino}propyl]-N-(1-isopropylpiperidin-4-yl)-2-methylbiphenyl-4-carboxamide hydrochloride], the “aPTT” value in the assay on human and animal plasma worked out at 0.11 µmol/L. The molecule also returned an IC50 against human factor XIa of 3.6 nM.
Taken in the same sequence, the figures for `Cc1cc(C(=O)NCC[N+](C)(C)C)ccc1-c1ccc(C[C@H](NC(=O)[C@H]2CC[C@H](CN)CC2)C(=O)Nc2ccc(-c3nn[nH]n3)cc2)cc1` [Example 41, 2-[({4′-[(2S)-2-({[trans-4-(Aminomethyl)cyclohexyl]carbonyl}amino)-3-oxo-3-({[4-(2H-tetrazol-5-yl)phenyl]amino}propyl]-2-methylbiphenyl-4-yl}carbonyl)amino]-N,N,N-trimethylethanaminium hydrochloride] were 0.18 µmol/L and 6 nM.
